Drawing on patent publication US11518760B2 (Liverpool School of Tropical Medicine, priority 2017, dated 2022), this text covers EC50 for 40 compounds.

Some results are limits rather than exact numbers.

This experiment deals with C6/36 Aedes albopictus cell line infected with Wolbachia pipientis (Wolbachia strain wAlbB). Nature of the experiment: In vitro insect cell line assay (anti-Wolbachia screen, SYTO 11 high content imaging). The class given is cell-based. The conditions noted are these: 168 h; C6/36 Aedes albopictus cells infected with Wolbachia pipientis wAlbB, 7 days incubation, SYTO 11 imaging; read-out: In vitro anti-Wolbachia activity. Summed up: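 Wolbachia wAlbB-infected C6/36 Aedes albopictus cells were exposed to compounds at a final 5 μM for 7 days at 26 °C, with DMSO-medium wells as untreated controls. Cells were then stained with SYTO 11 for 15 min, imaged by high-content microscopy and scored by texture analysis.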
In the case of `Cc1ccc(-c2cnc3ncnc(NCc4cccnc4C(F)(F)F)c3c2)cn1` [Example 181], the EC50 lay in the range of 1000 to 100000 nM.
To `FC(F)(F)c1ccc(CNc2nc(Cl)nc3ccccc23)cn1` [Example 115] belongs 1000 to 100000 nM; to `FC(F)C1CN(c2nc(NCc3cccnc3C(F)(F)F)c3cccnc3n2)CCO1` (stereo not shown) [Example 282, 2-(2-(difluoromethyl)morpholino)-N-((2-(trifluoromethyl)pyridin-3-yl)methyl)pyrido[2,3-d]pyrimidin-4-amine], 0.01 to 1 nM.
With `CC1(C)COCCN1c1nc(NCc2ccccc2C(F)(F)F)c2cccnc2n1` [Example 246, 2-(3,3-dimethylmorpholino)-N-(2-(trifluoromethyl)benzyl)pyrido[2,3-d]pyrimidin-4-amine], the EC50 lay within 100 to 1000 nM.
Turning to `CC(Nc1ncnc2cc(C#N)sc12)c1ccccc1C(F)(F)F` (stereo not shown) [Example 102, 4-((1-(2-(trifluoromethyl)phenyl)ethyl)amino)thieno[3,2-d]pyrimidine-6-carbonitrile], the EC50 fell in the range of 1000 to 100000 nM.
Take `CS(=O)(=O)C1CCN(c2nc(NCc3cccnc3C(F)(F)F)c3cccnc3n2)C1` (stereo not shown) [Example 263, 2-(3-(methylsulfonyl)pyrrolidin-1-yl)-N-((2-(trifluoromethyl)pyridin-3-yl)methyl)pyrido[2,3-d]pyrimidin-4-amine]: the EC50 fell in the range of 100 to 1000 nM.
Turning to `O=C(Nc1nc(NCc2cccnc2C(F)(F)F)c2cccnc2n1)Nc1ccccc1F` [Example 206, 1-(2-fluorophenyl)-3-(4-(((2-(trifluoromethyl)pyridin-3-yl)methyl)amino)pyrido[2,3-d]pyrimidin-2-yl)urea], the EC50 fell in the range of 100 to 1000 nM.
Regarding `CN(c1nc(NCc2cccnc2C(F)(F)F)c2cccnc2n1)C1CC1` [Example 175, N^2-cyclopropyl-N^2-methyl-N^4-((2-(trifluoromethyl)pyridin-3-yl)methyl)pyrido[2,3-d]pyrimidine-2,4-diamine], the EC50 was in the range of 1 to 10 nM.
Consider `CS(=O)(=O)C1CCN(c2nc(NCc3cccnc3C(F)(F)F)c3cccnc3n2)CC1` [Example 232, 2-(4-(methylsulfonyl)piperidin-1-yl)-N-((2-(trifluoromethyl)pyridin-3-yl)methyl)pyrido[2,3-d]pyrimidin-4-amine], for which the EC50 was in the range of 100 to 1000 nM.
Turning to `CC1COCCN1c1nc(N2CCC2c2ccccc2C(F)(F)F)c2cccnc2n1` (stereo not shown) [Example 214, 3-methyl-4-(4-(2-(2-(trifluoromethyl)phenyl)azetidin-1-yl)pyrido[2,3-d]pyrimidin-2-yl)morpholine], the EC50 was 0.01 to 1 nM.
`CC1(C)COCCN1c1nc(NCc2cccnc2C(F)(F)F)c2cccnc2n1` [Example 240, 2-(3,3-dimethylmorpholino)-N-((2-(trifluoromethyl)pyridin-3-yl)methyl)pyrido[2,3-d]pyrimidin-4-amine]: the EC50 was in the range of 0.01 to 1 nM.
As to `CCN(Cc1ccccc1C(F)(F)F)c1ncnc2ccsc12` [Example 54, N-ethyl-N-(2-(trifluoromethyl)benzyl)thieno[3,2-d]pyrimidin-4-amine], the EC50 was in the range of 1 to 10 nM.
As to `CC(C)(C)Nc1ncnc2ccsc12` [Example 78], the EC50 is 1000 to 100000 nM.
Turning to `CC1COCCN1c1nc(NCc2ccccc2C(F)(F)F)c2nccnc2n1` (stereo not shown) [Example 310, 2-(3-methylmorpholino)-N-(2-(trifluoromethyl)benzyl)pteridin-4-amine], the EC50 fell in the range of 100 to 1000 nM.
As to `CC1COCCN1Cc1nc(NCc2cccnc2C(F)(F)F)c2cccnc2n1` (stereo not shown) [Example 229, 2-((3-methylmorpholino)methyl)-N-((2-(trifluoromethyl)pyridin-3-yl)methyl)pyrido[2,3-d]pyrimidin-4-amine], the EC50 was in the range of 1000 to 100000 nM.
For `CC(C)Nc1nc(NCc2cccnc2C(F)(F)F)c2ncccc2n1` [Example 152, N^2-isopropyl-N^4-((2-(trifluoromethyl)pyridin-3-yl)methyl)pyrido[3,2-d]pyrimidine-2,4-diamine], the EC50 lay in the range of 100 to 1000 nM.
For `COc1ccc(CNc2nc(NC(C)C)nc3ccsc23)cc1` [Example 131, N^2-isopropyl-N^4-(4-methoxybenzyl)thieno[3,2-d]pyrimidine-2,4-diamine], the EC50 fell in the range of 1000 to 100000 nM.
On to `Cc1nc(NCc2cccnc2C(F)(F)F)c2cccnc2n1` [Example 177, 2-methyl-N-((2-(trifluoromethyl)pyridin-3-yl)methyl)pyrido[2,3-d]pyrimidin-4-amine], for which the EC50 was 1000 to 100000 nM.
`CC(C)Nc1nc(NCc2cccc(Cl)c2)c2sccc2n1` [Example 18, N^4-(3-chlorobenzyl)-N^2-isopropyithieno[3,2-d]pyrimidine-2,4-diamine]: the EC50 was in the range of 1000 to 100000 nM.
In the case of `CC(C)Nc1nc(NCCc2ccccc2C(F)(F)F)c2sccc2n1` [Example 45, N^2-isopropyl-N^4-(2-(trifluoromethyl)phenethyl)thieno(3,2-d]pyrimidine-2,4-diamine], the EC50 was in the range of 100 to 1000 nM.
`FC(F)O[C@H]1CCN(c2nc(NCc3cccnc3C(F)(F)F)c3cccnc3n2)C1` [Example 281, (S)-2-(3-(difluoromethoxy)pyrrolidin-1-yl)-N-((2-(trifluoromethyl)pyridin-3-yl)methyl)pyrido[2,3-d]pyrimidin-4-amine]: the EC50 was 0.01 to 1 nM.
With `FC(F)(F)c1ccccc1CNc1nc(NC2CC2)nc2ncccc12` [Example 156, N^2-cyclopropyl-N^4-(2-(trifluoromethyl)benzyl)pyrido[2,3-d]pyrimidine-2,4-diamine], the EC50 lay in the range of 1 to 10 nM.
In the case of `Cc1nc(N(C)C(C)c2ccccc2C(F)(F)F)c2sc(C)cc2n1` (stereo not shown) [Example 69, N,2,6-trimethyl-N-(1-(2-(trifluoromethyl)phenyl)ethyl)thieno[3,2-d]pyrimidin-4-amine], the EC50 lay within 1000 to 100000 nM.
As for `COc1ccc(CNc2nc(NC(C)C)nc3ccsc23)cc1OC` [Example 133, N^4-(3,4-dimethoxybenzyl)-N^2-isopropylthieno[3,2-d]pyrimidine-2,4-diamine], the EC50 is 1000 to 100000 nM.
Take `FC(F)(F)c1ccccc1CNc1nc(N2CC3CC2CO3)nc2ncccc12` (stereo not shown) [Example 267, 2-(2-oxa-5-azabicyclo[2.2.1]heptan-5-yl)-N-(2-(trifluoromethyl)benzyl)pyrido[2,3-d]pyrimidin-4-amine]: the EC50 was less than 0.01 nM.
`COc1ccc2c(NCc3cccnc3C(F)(F)F)nc(N3CCOCC3C)nc2n1` (stereo not shown) [Example 305, 7-methoxy-2-(3-methylmorpholino)-N-((2-(trifluoromethyl)pyridin-3-yl)methyl)pyrido[2,3-d]pyrimidin-4-amine]: the EC50 fell in the range of 1000 to 100000 nM.
For the compound `CN(Cc1ccccc1)c1nc(NCCCN2CCCC2=O)c2sccc2n1` [Example 36, 1-(3-((2-(benzyl(methyl)amino)thieno[3,2-d]pyrimidin-4-yl)amino)propyl)pyrrolidin-2-one], the EC50 was in the range of 1000 to 100000 nM.
Take `CC(C)Nc1nc(NCc2ccc(C#N)cc2)c2ncccc2n1` [Example 121, N^4-(4-cyanobenzyl)-N^2-isopropylpyrido[3,2-d]pyrimidine-2,4-diamine]: the EC50 was 1000 to 100000 nM.
Consider `CC(C)Nc1nc(NCc2ccc(Cl)cc2)c2ccccc2n1` [Example 136, N^4-(4-chlorobenzyl)-N^2-isopropylquinazoline-2,4-diamine], for which the EC50 lay in the range of 1000 to 100000 nM.
For `FC(F)C1CN(c2nc(NCc3ccccc3C(F)(F)F)c3cccnc3n2)CCO1` (stereo not shown) [Example 284, 2-(2-(difluoromethyl)morpholino)-N-(2-(trifluoromethyl)benzyl)pyrido[2,3-d]pyrimidin-4-amine] the value was less than 0.01 nM; for `CC(C)Nc1nc(NCc2ccccc2Cl)c2ccccc2n1` [Example 137, N^4-(2-chlorobenzyl)-N^2-isopropylquinazoline-2,4-diamine], 1000 to 100000 nM; for `[2H]c1cc2nc(C)nc(N(C)C(C)c3ccccc3C(F)(F)F)c2s1` (stereo not shown) [Example 71], 10 to 100 nM.
`N#CC1CN(c2nc(NCc3ccccc3C(F)(F)F)c3cccnc3n2)CCO1` (stereo not shown) [Example 283, 4-(4-((2-(trifluoromethyl)benzyl)amino)pyrido[2,3-d]pyrimidin-2-yl)morpholine-2-carbonitrile]: the EC50 is 0.01 to 1 nM.
Turning to `N#CC1CCN(c2nc(NCc3cccnc3C(F)(F)F)c3cccnc3n2)CC1` [Example 234, 1-(4-(((2-(trifluoromethyl)pyridin-3-yl)methyl)amino)pyrido[2,3-d]pyrimidin-2-yl)piperidine-4-carbonitrile], the EC50 was in the range of 1 to 10 nM.
For `CC(Nc1ncnc2cc(I)sc12)c1ccccc1C(F)(F)F` (stereo not shown) [Example 96, 6-iodo-N-(1-(2-(trifluoromethyl)phenyl)ethyl)thieno[3,2-d]pyrimidin-4-amine], the EC50 lay in the range of 1000 to 100000 nM.
To `CC(Nc1ncnc2c(Br)csc12)c1ccccc1C(F)(F)F` (stereo not shown) [Example 106, 7-bromo-N-(1-(2-(trifluoromethyl)phenyl)ethyl)thieno[3,2-d]pyrimidin-4-amine] belongs 1000 to 100000 nM; to `CC1CCN(c2nc(NCc3cccnc3C(F)(F)F)c3cccnc3n2)CC1` [Example 312, 2-(4-methylpiperidin-1-yl)-N-((2-(trifluoromethyl)pyridin-3-yl)methyl)pyrido[2,3-d]pyrimidin-4-amine], 0.01 to 1 nM.
To `Oc1nc(NCc2ccccc2C(F)(F)F)c2cccnc2n1` [Example 157, 4-((2-(trifluoromethyl)benzyl)amino)pyrido[2,3-d]pyrimidin-2-ol] belongs 1000 to 100000 nM; to `FC1(F)CCN(c2nc(N3CCC3c3cccnc3C(F)(F)F)c3cccnc3n2)CC1` (stereo not shown) [Example 218, 2-(4,4-difluoropiperidin-1-yl)-4-(2-(2-(trifluoromethyl)pyridin-3-yl)azetidin-1-yl)pyrido[2,3-d]pyrimidine], 0.01 to 1 nM; to `CC(C)Nc1nc(NCc2ccc(S(C)(=O)=O)cc2)c2ccccc2n1` [Example 110, N^2-isopropyl-N^4-(4-(methylsulfonyl)benzyl)quinazoline-2,4-diamine], 1000 to 100000 nM.
